Data: US20250179061A1 (SIRONAX LTD., priority 2022, published 2025)

test system: HT-29 cells; assay: HT-29 necroptosis cell viability assay (TNF-α/SMAC mimetic/zVAD-FMK, CellTiter-Glo); type: cell-based; conditions: Homo sapiens, HT-29, HT-29 necroptosis cell viability, IC50 class symbols; read-out: Activity
Summary of the method: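 Necroptosis was triggered by TNF-α (10 ng/ml), SMAC mimetic (6 μM) and zVAD-FMK (10 μM) in serum-free medium during 20 h compound exposure (10 concentrations, threefold steps) of HT-29 cells. IC50 from duplicate dose-responses uses CellTiter-Glo ATP luminescence as viability read-out.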

SMILES	IC50 [nM]
CC1(C#N)CN(c2nccc(Oc3ccc(-n4ncn(Cc5c(F)cccc5F)c4=O)cc3F)c2F)C1 [Example 226, 1-(4-(4-(4-(2,6-difluorobenzyl)-5-oxo-4,5-dihydro-1H-1,2,4-triazol-1-yl)-2-fluorophenoxy)-3-fluoropyridin-2-yl)-3-methylazetidine-3-carbonitrile]	< 100
Cc1c(Oc2ccc(-n3ncn(Cc4c(F)cccc4F)c3=O)cc2F)ccnc1N1CC(C)(C#N)C1 [Example 227, 1-(4-(4-(4-(2,6-difluorobenzyl)-5-oxo-4,5-dihydro-1H-1,2,4-triazol-1-yl)-2-fluorophenoxy)-3-methylpyridin-2-yl)-3-methylazetidine-3-carbonitrile]	< 100
Cc1cnc(N2CCC(C)(C#N)C2)cc1Oc1ccc(-n2ncn(Cc3c(F)cccc3F)c2=O)cc1F (stereo not shown) [Example 228, 1-(4-(4-(4-(2,6-difluorobenzyl)-5-oxo-4,5-dihydro-1H-1,2,4-triazol-1-yl)-2-fluorophenoxy)-5-methylpyridin-2-yl)-3-methylpyrrolidine-3-carbonitrile]	< 100
COC1(C#N)CN(c2cc(Oc3ccc(-n4ncn(Cc5c(F)cccc5F)c4=O)cc3F)c(F)cn2)C1 [Example 230, 1-(4-(4-(4-(2,6-difluorobenzyl)-5-oxo-4,5-dihydro-1H-1,2,4-triazol-1-yl)-2-fluorophenoxy)-5-fluoropyridin-2-yl)-3-methoxyazetidine-3-carbonitrile]	< 100
COC1(C#N)CN(c2cc(Oc3ccc(-n4ncn(Cc5c(F)cccc5F)c4=O)cc3F)c(Cl)cn2)C1 [Example 231, 1-(5-chloro-4-(4-(4-(2,6-difluorobenzyl)-5-oxo-4,5-dihydro-1H-1,2,4-triazol-1-yl)-2-fluorophenoxy)pyridin-2-yl)-3-methoxyazetidine-3-carbonitrile]	< 100
C[C@H]1[C@H](C#N)CN1c1cc(Oc2ccc(-n3ncn(Cc4c(F)cccc4F)c3=O)cc2F)c(F)cn1 [Example 232, (2S,3R)-1-(4-(4-(4-(2,6-difluorobenzyl)-5-oxo-4,5-dihydro-1H-1,2,4-triazol-1-yl)-2-fluorophenoxy)-5-fluoropyridin-2-yl)-2-methylazetidine-3-carbonitrile]	< 100
C[C@H]1[C@H](C#N)CN1c1cc(Oc2ccc(-n3ncn(Cc4c(F)cccc4F)c3=O)cc2F)c(Cl)cn1 [Example 233, (2S,3R)-1-(5-chloro-4-(4-(4-(2,6-difluorobenzyl)-5-oxo-4,5-dihydro-1H-1,2,4-triazol-1-yl)-2-fluorophenoxy)pyridin-2-yl)-2-methylazetidine-3-carbonitrile]	< 100
CCOC1CN(c2ncnc(Oc3ccc(-n4ncn(Cc5c(F)cccc5F)c4=O)cc3)c2F)C1 [Example 234, 4-(2,6-difluorobenzyl)-2-(4-((6-(3-ethoxyazetidin-1-yl)-5-fluoropyrimidin-4-yl)oxy)phenyl)-2,4-dihydro-3H-1,2,4-triazol-3-one]	100 to 1000
CCOC1CN(c2nccc(Oc3ccc(-n4ncn(Cc5c(F)cccc5F)c4=O)cc3)c2C)C1 [Example 236, 4-(2,6-difluorobenzyl)-2-(4-((2-(3-ethoxyazetidin-1-yl)-3-methylpyridin-4-yl)oxy)phenyl)-2,4-dihydro-3H-1,2,4-triazol-3-one]	< 100
O=c1n(Cc2c(F)cccc2F)cnn1-c1ccc(Oc2cc(N3CC4(COC4)C3)ncc2F)c(F)c1 [Example 237, 4-(2,6-difluorobenzyl)-2-(3-fluoro-4-((5-fluoro-2-(2-oxa-6-azaspiro[3.3]heptan-6-yl)pyridin-4-yl)oxy)phenyl)-2,4-dihydro-3H-1,2,4-triazol-3-one]	< 100
CC1(C#N)CN(c2nccc(Oc3ccc(-n4ncn(Cc5c(F)cccc5F)c4=O)cc3F)c2Cl)C1 [Example 238, 1-(3-chloro-4-(4-(4-(2,6-difluorobenzyl)-5-oxo-4,5-dihydro-1H-1,2,4-triazol-1-yl)-2-fluorophenoxy)pyridin-2-yl)-3-methylazetidine-3-carbonitrile]	< 100
COC1(C#N)CN(c2cc(Oc3ccc(-n4ncn(Cc5c(F)cccc5F)c4=O)cc3F)c(C)cn2)C1 [Example 239, 1-(4-(4-(4-(2,6-difluorobenzyl)-5-oxo-4,5-dihydro-1H-1,2,4-triazol-1-yl)-2-fluorophenoxy)-5-methylpyridin-2-yl)-3-methoxyazetidine-3-carbonitrile]	< 100
C[C@H]1C[C@@H](C#N)CN1c1cc(Oc2ccc(-n3ncn(Cc4c(F)cccc4F)c3=O)cc2F)c(Cl)cn1 [Example 240, (3R,5S)-1-(5-chloro-4-(4-(4-(2,6-difluorobenzyl)-5-oxo-4,5-dihydro-1H-1,2,4-triazol-1-yl)-2-fluorophenoxy)pyridin-2-yl)-5-methylpyrrolidine-3-carbonitrile]	< 100
C[C@H]1[C@@H](N(C)C)CN1c1cc(Oc2ccc(-n3ncn(Cc4c(F)cccc4F)c3=O)cc2F)c(F)cn1 [Example 241, 4-(2,6-difluorobenzyl)-2-(4-((2-((2S,3S)-3-(dimethylamino)-2-methylazetidin-1-yl)-5-fluoropyridin-4-yl)oxy)-3-fluorophenyl)-2,4-dihydro-3H-1,2,4-triazol-3-one]	< 100
C[C@H]1[C@@H](C#N)CN1c1nccc(Oc2ccc(-n3ncn(Cc4c(F)cccc4F)c3=O)cc2)c1F [Example 242, (2S,3S)-1-(4-(4-(4-(2,6-difluorobenzyl)-5-oxo-4,5-dihydro-1H-1,2,4-triazol-1-yl)phenoxy)-3-fluoropyridin-2-yl)-2-methylazetidine-3-carbonitrile]	< 100
CCCOC1CN(c2cc(Oc3ccc(-n4ncn(Cc5c(F)cccc5F)c4=O)cc3)ccn2)C1 [Example 243, 4-(2,6-difluorobenzyl)-2-(4-((2-(3-propoxyazetidin-1-yl)pyridin-4-yl)oxy)phenyl)-2,4-dihydro-3H-1,2,4-triazol-3-one]	< 100
C[C@H]1COCCN1c1cc(Oc2ccc(-n3ncn(Cc4c(F)cccc4F)c3=O)cc2)ccn1 [Example 244, (S)-4-(2,6-difluorobenzyl)-2-(4-((2-(3-methylmorpholino)pyridin-4-yl)oxy)phenyl)-2,4-dihydro-3H-1,2,4-triazol-3-one]	100 to 1000
O=c1n(Cc2c(F)cccc2F)cnn1-c1ccc(Oc2ccnc(N3CCC34COC4)c2)cc1 [Example 245, 2-(4-((2-(6-oxa-1-azaspiro[3.3]heptan-1-yl)pyridin-4-yl)oxy)phenyl)-4-(2,6-difluorobenzyl)-2,4-dihydro-3H-1,2,4-triazol-3-one]	100 to 1000
N#CC12CC(Nc3nccc(Oc4ccc(-n5ncn(Cc6c(F)cccc6F)c5=O)cc4F)c3F)(C1)C2 [Example 246, 3-((4-(4-(4-(2,6-difluorobenzyl)-5-oxo-4,5-dihydro-1H-1,2,4-triazol-1-yl)-2-fluorophenoxy)-3-fluoropyridin-2-yl)amino)bicyclo[1.1.1]pentane-1-carbonitrile]	< 100
Cc1c(Oc2ccc(-n3ncn(Cc4c(F)cccc4F)c3=O)cc2)ccnc1NC12CC(C#N)(C1)C2 [Example 247, 3-((4-(4-(4-(2,6-difluorobenzyl)-5-oxo-4,5-dihydro-1H-1,2,4-triazol-1-yl)phenoxy)-3-methylpyridin-2-yl)amino)bicyclo[1.1.1]pentane-1-carbonitrile]	< 100
N#CC12CC(Nc3nccc(Oc4ccc(-n5ncn(Cc6c(F)cccc6F)c5=O)cc4)c3Cl)(C1)C2 [Example 248, 3-((3-chloro-4-(4-(4-(2,6-difluorobenzyl)-5-oxo-4,5-dihydro-1H-1,2,4-triazol-1-yl)phenoxy)pyridin-2-yl)amino)bicyclo[1.1.1]pentane-1-carbonitrile]	< 100
CC1(O)CN(c2cc(Oc3ncc(-n4ncn(Cc5c(F)cccc5F)c4=O)cc3F)ccn2)C1 [Example 249, 4-(2,6-difluorobenzyl)-2-(5-fluoro-6-((2-(3-hydroxy-3-methylazetidin-1-yl)pyridin-4-yl)oxy)pyridin-3-yl)-2,4-dihydro-3H-1,2,4-triazol-3-one]	100 to 1000
C[C@H]1[C@@H](O)CN1c1cc(Oc2ncc(-n3ncn(Cc4c(F)cccc4F)c3=O)cc2F)ccn1 [Example 250, 4-(2,6-difluorobenzyl)-2-(5-fluoro-6-((2-((2S,3S)-3-hydroxy-2-methylazetidin-1-yl)pyridin-4-yl)oxy)pyridin-3-yl)-2,4-dihydro-3H-1,2,4-triazol-3-one]	< 100
Cc1cnc(N2CC(C)(C#N)C2)cc1Oc1ccc(-n2ncn(Cc3c(F)cccc3F)c2=O)cc1Cl [Example 251, 1-(4-(2-chloro-4-(4-(2,6-difluorobenzyl)-5-oxo-4,5-dihydro-1H-1,2,4-triazol-1-yl)phenoxy)-5-methylpyridin-2-yl)-3-methylazetidine-3-carbonitrile]	< 100
N#CC1(F)CN(c2cc(Oc3ccc(-n4ncn(Cc5c(F)cccc5F)c4=O)cc3)ccn2)C1 [Example 252, 1-(4-(4-(4-(2,6-difluorobenzyl)-5-oxo-4,5-dihydro-1H-1,2,4-triazol-1-yl)phenoxy)pyridin-2-yl)-3-fluoroazetidine-3-carbonitrile]	100 to 1000
CC(C)OC1CN(c2cccc(Oc3ccc(-n4ncn(Cc5c(F)cccc5F)c4=O)cc3)n2)C1 [Example 253, 4-(2,6-difluorobenzyl)-2-(4-((6-(3-isopropoxyazetidin-1-yl)pyridin-2-yl)oxy)phenyl)-2,4-dihydro-3H-1,2,4-triazol-3-one]	< 100
CC1(C)CC(=O)N(c2cc(Oc3ccc(-n4ncn(Cc5c(F)cccc5F)c4=O)cc3)ccn2)C1 [Example 254, 4-(2,6-difluorobenzyl)-2-(4-((2-(4,4-dimethyl-2-oxopyrrolidin-1-yl)pyridin-4-yl)oxy)phenyl)-2,4-dihydro-3H-1,2,4-triazol-3-one]	100 to 1000
N#CC1CCN(c2cc(Oc3ccc(-n4ncn(Cc5c(F)cccc5F)c4=O)cc3)ccn2)CC1 [Example 255, 1-(4-(4-(4-(2,6-difluorobenzyl)-5-oxo-4,5-dihydro-1H-1,2,4-triazol-1-yl)phenoxy)pyridin-2-yl)piperidine-4-carbonitrile]	100 to 1000
